Series [1] relates to L. infantum promastigotes. The series can be described thus: Antipromastigote assay (L. infantum), MTT colorimetric. The class given is cell-based, Leishmania (L.) infantum. As to conditions: ± SD; MTT, 48 h; read-out: L. infantum IC50 promastigotes. As to the method: (§1) Table 1 depicts the antileishmanial (L. infantum) activity evaluation performed against both the amastigote form (evaluated microscopically using an ex vivo intracellular model of mice macrophages) and the promastigote one (using an MTT colorimetric method).[32],[33] The cytotoxicity was evaluated against NCTC cells using an MTT colorimetric method and the selectivity index was determined using the ratio between the CC50 values (NCTC cells) and the IC50 values (amastigotes).[32] […] With respect to the substituents on the C ring, larger, hydrophobic groups conferred greater bioactivity (e.g., 9b–d), whereas small, hydrophilic groups such as a hydroxyl group afford modest to poor bioactivity.
(§2) Leishmania (L.) infantum (MHOM/BR/1972/LD) amastigotes were obtained from golden hamsters (Mesocricetus auratus) spleens following 60-70 days of infection via differential centrifugation. The Stauber method was used to determine the number of parasites.12 […]
Biological activity assays
Antipromastigote Assay (L. infantum)
L. infantum promastigotes (1 × 10^6 cells/well) were added to a 96-well plates. Treatment of the cells with selected compounds (serially diluted 0.14 to 200 μM) was performed in M199 medium supplemented with 0.25% hemin and 10% fetal bovine serum for 48 h at 24 °C. The MTT colorimetric assay was used to determine the activity (IC50) of the compounds. Miltefosine was used as a standard drug and untreated promastigotes were used as a negative control. The half inhibitory concentration (IC50) was determined from a sigmoidal regression of the concentration-response curves generated in GraphPadPrism7. […]

Another series deals with L. infantum amastigotes. The series is described as follows: Antiamastigote assay (L. infantum), ex vivo intracellular model of mice macrophages, microscopy. The class given is cell-based, Leishmania (L.) infantum. As to conditions: ± SD; intracellular, peritoneal macrophages, 96 h; read-out: L. infantum IC50 amastigotes. Here is the method:
as §1, §2
(§3) Peritoneal macrophages were obtained via washing the peritoneal cavity of BALB/c mice with 10% foetal calf serum supplemented RPMI-1640 medium (pH 7.2). The macrophages were maintained in a humidified incubator at 37 °C and with 5% CO2.
(§4) Biological activity assays […]
Antiamastigote Assay (L. infantum)
Peritoneal macrophages (1 × 10^5/well) were added to a 16-well slide chambers (NUNC) and incubated with 5% CO2 at 37 °C. The cells were subsequently infected with L. infantum amastigotes (10:1 amastigotes/macrophage) for 24 h. Treatment of the cells with selected compounds (serially diluted 1.2 to 150 μM) was performed in a humidified incubator for 96 h at 37 °C and with 5% CO2. Untreated cells were used as a negative control and miltefosine was used as a standard drug. The treated cells were fixed on slides with methanol, stained with Giemsa and observed under a light microscope.13 The infection index was used in order to determine the half inhibitory concentration (IC50) (no. infected macrophages × no. amastigotes / total no. […]

A further series relates to T. cruzi trypomastigotes. The series is described as follows: Antitrypomastigote assay (T. cruzi), resazurin. The class given is cell-based, Trypanosoma (T.) cruzi. Particulars: ± SD; resazurin, 24 h; read-out: T. cruzi IC50 trypomastigotes. As to the method:
(§5) T. cruzi also assumes several cell morphologies during its lifecycle, which differ between the insect vector and mammalian host. In the latter environment, the parasite transitions between extracellular bloodstream trypomastigotes and intracellular amastigotes; both forms are clinically relevant, particularly during the acute stage of Chagas disease.[34] In this work, antitrypanosomal activity was tested against both the amastigote form (evaluated microscopically using an ex vivo intracellular model using mice macrophages) and the trypomastigote form (using the resazurin in vitro assay).[33],[35] […] In silico predictions of pharmacokinetic profiles were carried out using the SwissADME webtool (see the Supporting Information for details).[36] […]
(§6) […] Cultivation was performed in 2% fetal calf serum supplemented RPMI-1640 medium.
(§7) The trypomastigotes were maintained in a humidified incubator at 37 °C and with 5% CO2. […]
as §4
The half inhibitory concentration (IC50) was determined from a sigmoidal regression of the concentration-response curves generated in GraphPadPrism7. […]
Treatment of the cells with selected compounds (serially diluted 1.2 to 150 μM) was performed in a humidified incubator in RPMI 1640 medium for 24 h at 37 °C and with 5% CO2. Resazurin (0.011% in PBS) was added subsequently to verify parasite viability. Benznidazole was used as a standard drug. The optical density was determined at 570 nm using the FilterMax F5 (Molecular Devices). […]
(The colour change of resazurin is a common sign of viable cells or microbes.)

Another series concerns T. cruzi amastigotes. The series is described as follows: Antiamastigote assay (T. cruzi), ex vivo intracellular model using mice macrophages, microscopy. Particulars: ± SD, peritoneal macrophages, 48 h, read-out: T. cruzi IC50 amastigotes. In kind it is cell-based, Trypanosoma (T.) cruzi. Here is the method: as §5, §6, §7, §3, §4
Peritoneal macrophages (1 × 10^5 cells/well) obtained from the peritoneal cavity of BALB/C mice were added to 16-well chambers (NUNC, Thermo Fischer Scientific). The cells were infected with trypomastigotes (10:1 parasites/macrophage) for 2 h. Then treatment of the infected macrophages with selected compounds (serially diluted 1.2 to 100 μM) was performed in a humidified incubator for 48 h at 37 °C and with 5% CO2. The treated cells were fixed on slides using methanol, stained with Giemsa and observed under a light microscope (EVOS M5000, Thermo, USA) with digital image equipment. The infection index was used in order to determine the half inhibitory concentration (IC50) (no. infected macrophages × no. amastigotes / total no.

Another series deals with NCTC cells. The series is described as follows: Mammalian toxicity, MTT colorimetric. In kind it is cell-based, murine. Here is the method: as §1, with “bioactivity. […]” for “bioactivity.”
Murine conjunctive fibroblasts NCTC clone 929 (ATCC) were maintained in 10% foetal calf serum supplemented RPMI-1640 medium (pH 7.2) at 37 °C in a humidified incubator with 5% CO2. […]
as §4
NCTC cells (6 × 10^4/well) were added to a 96-well plate. Treatments of the cells with selected compounds (serially diluted 1.5 to 200 μM) was performed in a humidified incubator for 96 h at 37 °C and with 5% CO2.
The MTT colorimetric method was used to determine the 50% cytotoxic concentration (CC50) and the selectivity index (CC50 against NCTC cells/IC50 against amastigotes).15 […]
[…] At 6 h and 24 h post-treatment, a 1 mL aliquot was taken for imaging. The cell cycle experiment was preformed twice independently.
Generation of mNG::RAD51 tagged cell line
The single-stranded DNA-binding protein RAD51, associated with DNA Repair, LmxM.28.0550 was tagged with endogenous fluorescent protein mNeonGreen (mNG) at the N-terminus. […]
Primers for constructs and sgRNA were designed using LeishGEdit (http://www.leishGEdit.net).
PCR was at 94 °C for 5 min, followed by 35 cycles at 94 °C (15 sec), 65 °C (15 sec), 72 °C (2 min) then finally 72 °C (1 min).
PCR was at 94 °C for 30 sec, followed by 30 cycles at 94 °C (30 sec), 60 °C (30 sec), 72 °C (30 sec) then finally 72 °C (2 min). […] Combined PCR products were precipitated for 20 min with 10 μL 3M sodium acetate and 300 μL EtOH, pelleted at 14000 min-1 30 min, washed once with 70% EtOH, re-pelleted and resuspended in […]
Promastigotes (1 × 10^7 cells) were combined with PCR products and transfected using the Amaxa Nucleofector II.17 Electroporation was performed using 2 mm cuvettes on the X-100 program, followed by immediate suspension in pre-warmed M199 medium. Successful transfectants were selected with 20 μg mL-1 Puromycin 15 h after transfection, taking 4 days to reach stable growth in culture. mNG::RAD51 nuclear foci studies mNG::RAD51 promastigotes (5 × 10^6 cells mL-1) in 7 mL of M199 medium were treated with 7 μL o f compound (S)-9a or (S)-9b dissolved in DMSO giving a final concentration of 50 μM. Phleomycin was used as a positive control at a final concentration of 25 μg mL-1. At T = 0, 15, 30, 60 min, and 2, 6, 24 h post-treatment a 0.8 mL aliquot was taken for imaging.

Series [2] concerns L. donovani promastigotes. More on the design: method as in PMID 26625837, PMID 12203262, PMID 3253497, PMID 25629555, PMID 3075676. Particulars: reported antiparasitic activity; cited from earlier work.
For a further series, the system named is T. cruzi epimastigotes. More on the design: method as in PMID 26625837, PMID 12203262, PMID 3253497, PMID 25629555, PMID 3075676. As to conditions: reported antiparasitic activity; cited from earlier work.

The text below walks through data of PMC10900488, “Synthesis and Evaluation of (Bis)benzyltetrahydroisoquinoline Alkaloids as Antiparasitic Agents” (JACS Au, 2024).

Bounds are passed on as bounds.

In the case of `COc1ccc(COc2ccc(C[C@@H]3c4cc(OC)c(OC)cc4CCN3C)cc2)cc1` [(R)-10c], the IC50 in series [1] was 2.4 ± 0.9 µM; in the series on L. infantum amastigotes it was 9.3 ± 0.4 µM; with T. cruzi trypomastigotes, 25.3 ± 2.1 µM; with T. cruzi amastigotes, more than 100 µM. The CC50 with NCTC cells was found to be 28.1 ± 5.5 µM.
In the case of `COc1ccc(COc2ccc(C[C@H]3c4cc(OC)c(OC)cc4CCN3C)cc2)cc1` [(S)-10c], the IC50 is 4.8 ± 0.2 µM in series [1], more than 150 µM with L. infantum amastigotes, 20.4 ± 11.4 µM in the series with T. cruzi trypomastigotes and more than 100 µM in the series on T. cruzi amastigotes. This compound also came in with a CC50 with NCTC cells of 5.8 ± 0.5 µM.
On to `COc1ccc2cc1Oc1ccc(cc1)C[C@H]1c3cc(OC)c(OC)c(c3CCN1C)Oc1c(O)c(OC)cc3c1[C@H](C2)NCC3` [compound 2, northalrugosidine], for which the IC50 in series [2] is 0.28 µM.
Regarding `COc1ccc2cc1Oc1ccc(cc1)C[C@H]1c3c(cc(OC)c(O)c3Oc3cc4c(cc3OC)CCN[C@@H]4C2)CCN1C` [compound 3, daphnandrine], the IC50 with T. cruzi epimastigotes is 43 µM.

Usually IC50 stands for the concentration needed to halve the response being measured. By CC50 is commonly meant the concentration that lowers cell viability or growth by half. Low readings indicate greater toxicity to the cells, high ones lower toxicity to the cells.
